Assays:
[1] = Cytotoxicity against mouse J774.1 cells after 24 hrs by Alamar blue assay; type: cell-based
[2] = Drug metabolism in rat liver microsomes assessed as CYP450-mediated 5-fluoro-3-(4-fluorobenzylcarbamoyl)-1-(3-hydroxybutyl)-7-morpholino-4-oxo-1,4-dihydroquinolinium formation at 100 uM using NADPH/H+ as co-factor after 30 to 90 mins by LC/MSD iom trap method; type: ADME
[3] = system: Trypanosoma brucei brucei; test: Antitrypanosomal activity against trypomastigote forms of Trypanosoma brucei brucei TC 221 assessed as parasite growth inhibition after 48 hrs by Alamar blue assay; type: functional, organism-based; conditions: TC 221, 48 h
[4] = Drug metabolism in rat liver microsomes assessed as CYP450-mediated 5-fluoro-3-(4-fluorobenzylcarbamoyl)-7-morpholino-4-oxo-1,4-dihydroquinolinium formation at 100 uM using NADPH/H+ as co-factor after 30 to 90 mins by LC/MSD iom trap method; type: ADME
[5] = Drug metabolism in rat liver microsomes assessed as CYP450-mediated 5-fluoro-3-(4-fluorobenzylcarbamoyl)-1-methyl-7-morpholino-4-oxo-1,4-dihydroquinolinium formation at 100 uM using NADPH/H+ as co-factor after 30 to 90 mins by LC/MSD iom trap method; type: ADME
[6] = Drug metabolism in rat liver cytosol assessed as CYP450-mediated 1-butyl-3-carboxy-5-fluoro-7-morpholino-4-oxo-1,4-dihydroquinolinium formation at 100 uM using NADPH/H+ as co-factor after 30 to 90 mins by LC/MSD iom trap method; type: ADME, subcellular
[7] = Drug metabolism in rat liver cytosol assessed as CYP450-mediated 5-fluoro-3-(4-fluorobenzylcarbamoyl)-1-methyl-7-morpholino-4-oxo-1,4-dihydroquinolinium formation at 100 uM using NADPH/H+ as co-factor after 30 to 90 mins by LC/MSD iom trap method; type: ADME, subcellular
[8] = system: Trypanosoma brucei brucei; test: Antitrypanosomal activity against trypomastigote forms of Trypanosoma brucei brucei TC 221 assessed as parasite growth inhibition after 72 hrs by Alamar blue assay; type: functional, organism-based; conditions: TC 221, 72 h
[9] = Solubility of the compound in RPMI-1640 medium; type: physicochemical
[10] = Octanol/water partition co-efficient, log P of the compound by HPLC based method; type: physicochemical
[11] = Drug metabolism in rat liver microsomes assessed as CYP450-mediated 1-butyl-3-carboxy-5-fluoro-7-morpholino-4-oxo-1,4-dihydroquinolinium formation at 100 uM using NADPH/H+ as co-factor after 30 to 90 mins by LC/MSD iom trap method; type: ADME
[12] = Selectivity index, ratio of CC50 for mouse J774.1 cells to IC50 for trypomastigote forms of Trypanosoma brucei brucei TC 221 assessed as parasite growth inhibition after 48 hrs; type: toxicity; conditions: read-out: Ratio CC50/IC50
[13] = Drug metabolism in rat liver cytosol assessed as CYP450-mediated 5-fluoro-3-(4-fluorobenzylcarbamoyl)-1-(3-hydroxybutyl)-7-morpholino-4-oxo-1,4-dihydroquinolinium formation at 100 uM using NADPH/H+ as co-factor after 30 to 90 mins by LC/MSD iom trap method; type: ADME, subcellular
[14] = Drug metabolism in rat liver cytosol assessed as CYP450-mediated 5-fluoro-3-(4-fluorobenzylcarbamoyl)-7-morpholino-4-oxo-1,4-dihydroquinolinium formation at 100 uM using NADPH/H+ as co-factor after 30 to 90 mins by LC/MSD iom trap method; type: ADME, subcellular
[15] = Half life in rat liver cytosol; type: ADME, subcellular
[16] = Stability in rat liver cytosol assessed as compound turnover per mg protein; type: ADME, subcellular
[17] = Drug metabolism in rat liver cytosol assessed as CYP450-mediated 1-butyl-3-carboxy-6-fluoro-7-morpholino-4-oxo-1,4-dihydroquinolinium formation at 100 uM using NADPH/H+ as co-factor after 30 to 90 mins by LC/MSD iom trap method; type: ADME, subcellular
[18] = Drug metabolism in rat liver microsomes assessed as CYP450-mediated 6-fluoro-3-(4-fluorobenzylcarbamoyl)-7-morpholino-4-oxo-1,4-dihydroquinolinium formation at 100 uM using NADPH/H+ as co-factor after 30 to 90 mins by LC/MSD iom trap method; type: ADME
[19] = Drug metabolism in rat liver microsomes assessed as CYP450-mediated 6-fluoro-3-(4-fluorobenzylcarbamoyl)-1-methyl-7-morpholino-4-oxo-1,4-dihydroquinolinium formation at 100 uM using NADPH/H+ as co-factor after 30 to 90 mins by LC/MSD iom trap method; type: ADME
[20] = Drug metabolism in rat liver cytosol assessed as CYP450-mediated 6-fluoro-3-(4-fluorobenzylcarbamoyl)-1-methyl-7-morpholino-4-oxo-1,4-dihydroquinolinium formation at 100 uM using NADPH/H+ as co-factor after 30 to 90 mins by LC/MSD iom trap method; type: ADME, subcellular
[21] = Drug metabolism in rat liver microsomes assessed as CYP450-mediated 6-fluoro-3-(4-fluorobenzylcarbamoyl)-1-(3-hydroxybutyl)-7-morpholino-4-oxo-1,4-dihydroquinolinium formation at 100 uM using NADPH/H+ as co-factor after 30 to 90 mins by LC/MSD iom trap method; type: ADME
[22] = Drug metabolism in rat liver microsomes assessed as CYP450-mediated 1-butyl-3-carboxy-6-fluoro-7-morpholino-4-oxo-1,4-dihydroquinolinium formation at 100 uM using NADPH/H+ as co-factor after 30 to 90 mins by LC/MSD iom trap method; type: ADME
[23] = Drug metabolism in rat liver cytosol assessed as CYP450-mediated 6-fluoro-3-(4-fluorobenzylcarbamoyl)-1-(3-hydroxybutyl)-7-morpholino-4-oxo-1,4-dihydroquinolinium formation at 100 uM using NADPH/H+ as co-factor after 30 to 90 mins by LC/MSD iom trap method; type: ADME, subcellular
[24] = Drug metabolism in rat liver cytosol assessed as CYP450-mediated 6-fluoro-3-(4-fluorobenzylcarbamoyl)-7-morpholino-4-oxo-1,4-dihydroquinolinium formation at 100 uM using NADPH/H+ as co-factor after 30 to 90 mins by LC/MSD iom trap method; type: ADME, subcellular

For `CCCCn1cc(C(=O)NCc2ccc(F)cc2)c(=O)c2c(F)cc(N3CCOCC3)cc21`, the CC50 at 24 h [1] was greater than 25000 nM, the Drug metabolism [2] was “Metabolite_Detected” and the IC50 [3] was 20 nM. The Drug metabolism [4] was “Metabolite_Detected”, the Drug metabolism [5] was “Metabolite_Detected” and the Drug metabolism [6] was “Metabolite_Detected”. For the same compound, the Drug metabolism [7] was “Metabolite_Detected”, the IC50 [8] was 20 nM and the solubility [9] was “Insoluble”. For the same compound, the logP [10] was 3.41, the Drug metabolism [11] was “Metabolite_Detected” and the selectivity ratio at 48 h [12] was greater than 1250. For the same compound, the Drug metabolism [13] was “Metabolite_Detected”, the Drug metabolism [14] was “Metabolite_Detected” and the half-life [15] was 7.7 h. It also gave a Drug metabolism [16] of 3.89 pmol/min/mg protein.
For `CCCCn1cc(C(=O)NCc2ccc(F)cc2)c(=O)c2cc(F)c(N3CCOCC3)cc21`, the CC50 at 24 h [1] was greater than 20000 nM, the Drug metabolism [17] was “Metabolite_Detected” and the IC50 [3] was 50 nM. The Drug metabolism [18] was “Metabolite_Detected”, the Drug metabolism [19] was “Metabolite_Detected” and the IC50 [8] was 90 nM. For the same compound, the solubility [9] was “Insoluble”, the Drug metabolism [20] was “Metabolite_Detected” and the Drug metabolism [21] was “Metabolite_Detected”. The logP [10] was 4.13, the Drug metabolism [22] was “Metabolite_Detected” and the selectivity ratio at 48 h [12] was greater than 400. For the same compound, the Drug metabolism [23] was “Metabolite_Detected”, the Drug metabolism [24] was “Metabolite_Detected” and the half-life [15] was 6.4 h.
